Laboratory results as given in US20130029936A1, “Inclusion Compounds of Fumagillol Derivative or its Salt, and Pharmaceutical Compositions Comprising the Same” (priority 2002, published 2013).
Converted amounts (≈) assume the structure as drawn.

Key:
[1] = cited from earlier work
[2] = Solubility in hydroxypropyl-β-cyclodextrin solution (HPLC of filtrate); format: physicochemical; details: 4° C., 72 hr
Description: O-(4-dimethylaminoethoxycinnamoyl)fumagillol (30 mg) was added to 1.5, 3.5, 7.0, 14.0, 28.0 w/v % hydroxypropyl-β-cyclodextrin solution, respectively, and stirred at 4° C. After 72 hr, the mixture was filtered with 0.2 μm membrabe filter and O-(4-dimethylaminoethoxycinnamoyl)fumagillol in the filtrate was determined by high pressure liquid chromatography (HPLC). The solubility of O-(4-dimethylamino ethoxycinnamoyl)fumagillol as a function of the hydroxypropyl-β-cyclodextrin concentration was represented in Table 1.
O-(3,4,5-trimethoxycinnamoyl)fumagillol (20 mg) was added to 1.5, 3.5, 7.0, 14.0, 28.0 w/v % hydroxypropyl-β-cyclodextrin solution, respectively, and stirred at 4° C. After 72 hr, the mixture was filtered with 0.2 μm membrabe filter and O-(3,4,5-trimethoxycinnamoyl)fumagillol in the filtrate was determined by high pressure liquid chromatography (HPLC). The solubility of O-(3,4,5-trimethoxycinnamoyl)fumagillol as a function of the hydroxypropyl-β-cyclodextrin concentration was shown in Table 3.

[3] = Solubility in sulfobutylether-7-β-cyclodextrin solution (HPLC of filtrate); format: physicochemical; details: 4° C., 72 hr
Description: O-(4-dimethylaminoethoxycinnamoyl)fumagillol (30 mg) was added to 1.5, 3.5, 7.0, 14.0, 28.0 w/v % sulfobutylether-7-β-cyclodextrin solution, respectively, and stirred at 4° C. After 72 hr, the mixture was filtered with 0.2 μm membrabe filter and O-(4-dimethylaminoethoxycinnamoyl)fumagillol in the filtrate was determined by high pressure liquid chromatography (HPLC). The solubility of O-(4-dimethylaminoethoxycinnamoyl)fumagillol as a function of the sulfobutylether-7-β-cyclodextrin concentration was represented in Table 2.
O-(3,4,5-trimethoxycinnamoyl)fumagillol (20 mg) was added to 1.5, 3.5, 7.0, 14.0, 28.0 w/v % sulfobutylether-7-β-cyclodextrin solution, respectively, and stirred at 4° C. After 72 hr, the mixture was filtered with 0.2 μm membrabe filter and O-(3,4,5-trimethoxycinnamoyl)fumagillol in the filtrate was determined by high pressure liquid chromatography (HPLC). The solubility of O-(3,4,5-trimethoxycinnamoyl)fumagillol as a function of the sulfobutyletyher-7-β-cyclodextrin concentration was shown in Table 4.

[4] = Stability of lyophilized powders under storage at 25° C. (residual amount by HPLC); format: physicochemical
Description: The stability of the lyophilized powders obtained in Example 6 was compared with that of O-(4-dimethylaminoethoxycinnamoyl)fumagillol alone under storage at 25° C. The residual amount of O-(4-dimethylaminoethoxycinnamoyl)fumagillol was determined by HPLC.
The stability of the lyophilized powders obtained in Example 7 was compared with that of O-(3,4,5-trimethoxycinnamoyl)fumagillol alone at 25° C. The residual amount of O-(3,4,5-trimethoxycinnamoyl)fumagillol was determined by HPLC.

[5] = Solubility in hydroxypropyl-β-cyclodextrin solution (HPLC of filtrate); format: physicochemical
[6] = Solubility in phosphate buffer (pH 6.7) containing hydroxypropyl-β-cyclodextrin; format: physicochemical; details: 4° C., 72 hr
Description: O-(4-dimethylaminoethoxycinnamoyl)fumagillol (50 mg) was added to phosphate buffer (pH 6.7) containing 1.5, 3.5, 7.0 and 14.0 w/v % hydroxypropyl-β-cyclodextrin, respectively, and stirred at 4° C. After 72 hr, the mixture was filtered with 0.2 μm membrabe filter and O-(4-dimethylaminoethoxycinnamoyl)fumagillol in the filtrate was determined by high pressure liquid chromatography (HPLC). The solubility of O-(4-dimethylaminoethoxycinnamoyl)fumagillol as a function of the hydroxypropyl-β-cyclodextrin concentration was shown in Table 5.

[7] = Solubility evaluation with cosolvents and surfactants; format: physicochemical
Source text: However, these formulations have a number of disadvantages, which are the inability to guarantee the long-term stability due to facile hydrolysis in solution state, the inability to be buffered due to increased sensitivity to ions resulting in precipitation and further, the toxicity of the surfactants.

[8] = Stability (hydrolysis) in acidic, neutral and basic solutions at 50° C. with hydroxypropyl-β-cyclodextrin; format: physicochemical
Description: The stability of O-(4-dimethylaminoethoxycinnamoyl)fumagillol was investigated in the presence of various concentrations of hydroxypropyl-β-cyclodextrin in acidic, neutral and basic solutions at 50° C. The residual amount of O-(4-dimethylaminoethoxycinnamoyl)fumagillol in each solution was determined by HPLC.

[9] = tested on: Lewis lung carcinoma; test: Tumor growth inhibition, subcutaneously implanted Lewis lung carcinoma; format: in vivo; details: BDF1 mice
Description: Pre-prepared tumor mass (Lewis lung carcinoma) of 8 mm^3 was subcutaneously implanted into the right axillary region of BDF1 mice (4 weeks). When the tumor size was 100-200 mm^3, mice were divided randomly into treatment group and control group. The treatment group was administered subcutaneously with O-(4-ethylaminoethoxycinnamoyl)fumagillol or the complex of O-(4-ethylaminoethoxycinnamoyl)fumagillol with hydroxypropyl-β-cyclodextrin at a dose of 30 mg/kg or 120 mg/kg as O-(4-ethylaminoethoxycinnamoyl)fumagillol every other day for 5 injections, while the control group was given injections of 0.2 ml of phosphate buffered saline. The tumors were weighed on the final day, and tumor volume was calculated using the following equation:
Tumor volume (mm^3)=a×b^2×0.5
(a: the longest diameter, b: the shortest diatheter) Inhibition ratio (IR %) of the treatment group relative to the untreated control group was calculated using the following equation:
=(1−Tumor volume of Treatment group/Tumor volume of Control group)×100
=(1−Tumor weight of Treatment group/Tumor weight of Control group)×100

[10] = 1.5 w/v % hydroxypropyl-β-cyclodextrin
[11] = 3.5 w/v % hydroxypropyl-β-cyclodextrin
[12] = 14.0 w/v % hydroxypropyl-β-cyclodextrin
[13] = 28.0 w/v % hydroxypropyl-β-cyclodextrin
[14] = 0 w/v % sulfobutylether-7-β-cyclodextrin
[15] = 1.5 w/v % sulfobutylether-7-β-cyclodextrin
[16] = 3.5 w/v % sulfobutylether-7-β-cyclodextrin
[17] = 14.0 w/v % sulfobutylether-7-β-cyclodextrin
[18] = 28.0 w/v % sulfobutylether-7-β-cyclodextrin
[19] = 0 w/v % hydroxypropyl-β-cyclodextrin, 4° C., 72 hr
[20] = Acidic (pH 3.2), 2 w/v % hydroxypropyl-β-cyclodextrin
[21] = Acidic (pH 3.2), 5 w/v % hydroxypropyl-β-cyclodextrin
[22] = Acidic (pH 3.2), 10 w/v % hydroxypropyl-β-cyclodextrin
[23] = Acidic (pH 3.2), 20 w/v % hydroxypropyl-β-cyclodextrin
[24] = Basic (pH 11.5), 2 w/v % hydroxypropyl-β-cyclodextrin
[25] = Basic (pH 11.5), 5 w/v % hydroxypropyl-β-cyclodextrin
[26] = Basic (pH 11.5), 10 w/v % hydroxypropyl-β-cyclodextrin
[27] = Basic (pH 11.5), 20 w/v % hydroxypropyl-β-cyclodextrin
[28] = Neutral (pH 7.2), 2 w/v % hydroxypropyl-β-cyclodextrin
[29] = Neutral (pH 7.2), 5 w/v % hydroxypropyl-β-cyclodextrin
[30] = Neutral (pH 7.2), 10 w/v % hydroxypropyl-β-cyclodextrin
[31] = Neutral (pH 7.2), 20 w/v % hydroxypropyl-β-cyclodextrin
[32] = Total Dose 150 mg/kg (30 mg/kg subcutaneously every other day, 5 injections)
[33] = Total Dose 600 mg/kg (120 mg/kg subcutaneously every other day, 5 injections)

OC[C@H]1O[C@@H]2O[C@H]3[C@H](O)[C@@H](O)[C@@H](O[C@H]4[C@H](O)[C@@H](O)[C@@H](O[C@H]5[C@H](O)[C@@H](O)[C@@H](O[C@H]6[C@H](O)[C@@H](O)[C@@H](O[C@H]7[C@H](O)[C@@H](O)[C@@H](O[C@H]8[C@H](O)[C@@H](O)[C@@H](O[C@H]1[C@H](O)[C@H]2O)O[C@@H]8CO)O[C@@H]7CO)O[C@@H]6CO)O[C@@H]5CO)O[C@@H]4CO)O[C@@H]3CO [β-cyclodextrin]
aqueous solubility [1]: 1.8 g per 100 ml of water

COc1cc(C=CC(=O)OC2CCC3(CO3)C(C3(C)OC3CC=C(C)C)C2OC)cc(OC)c1OC (centres unmarked) [O-(3,4,5-trimethoxycinnamoyl)fumagillol]
Solubility [2, 10]: 430 µg/mL (≈ 0.856 mM) | Solubility [2, 11]: 1520 µg/mL (≈ 3.02 mM) | Solubility ([2]; 7.0 w/v % hydroxypropyl-β-cyclodextrin): 3540 µg/mL (≈ 7.04 mM) | Solubility [2, 12]: 6720 µg/mL (≈ 13.4 mM) | Solubility [2, 13]: 12020 µg/mL (≈ 23.9 mM) | Solubility [3, 14]: 2 µg/mL (≈ 0.00398 mM) | Solubility [3, 15]: 580 µg/mL (≈ 1.15 mM) | Solubility [3, 16]: 1380 µg/mL (≈ 2.75 mM) | Solubility ([3]; 7.0 w/v % sulfobutylether-7-β-cyclodextrin): 2750 µg/mL (≈ 5.47 mM) | Solubility [3, 17]: 5690 µg/mL (≈ 11.3 mM) | Solubility [3, 18]: 11670 µg/mL (≈ 23.2 mM) | Residual amount of O-(3,4,5-trimethoxycinnamoyl)fumagillol (%) after 1 month ([4]; 25° C., after 1 month): 65.3% | Solubility [5, 19]: 2 µg/mL (≈ 0.00398 mM)

CO[C@@H]1[C@H](OC(=O)C=Cc2ccc(OCCN(C)C)cc2)CC[C@]2(CO2)[C@H]1[C@@]1(C)O[C@@H]1CC=C(C)C [O-(4-dimethylaminoethoxycinnamoyl)fumagillol]
Solubility [2, 10]: 1030 µg/mL (≈ 2.06 mM) | Solubility [2, 11]: 2930 µg/mL (≈ 5.86 mM) | Solubility [2, 12]: 11540 µg/mL (≈ 23.1 mM) | Solubility [2, 13]: 22640 µg/mL (≈ 45.3 mM) | Solubility [3, 14]: 50 µg/mL (≈ 0.1 mM) | Solubility [3, 15]: 870 µg/mL (≈ 1.74 mM) | Solubility [3, 16]: 2240 µg/mL (≈ 4.48 mM) | Solubility [3, 17]: 10430 µg/mL (≈ 20.9 mM) | Solubility [3, 18]: 21300 µg/mL (≈ 42.6 mM) | Solubility ([6]; phosphate buffer pH 6.7, 0 w/v % hydroxypropyl-β-cyclodextrin): 2380 µg/mL (≈ 4.76 mM) | Solubility ([6]; phosphate buffer pH 6.7, 1.5 w/v % hydroxypropyl-β-cyclodextrin): 4240 µg/mL (≈ 8.49 mM) | Solubility ([6]; phosphate buffer pH 6.7, 3.5 w/v % hydroxypropyl-β-cyclodextrin): 9860 µg/mL (≈ 19.7 mM) | Solubility ([6]; phosphate buffer pH 6.7, 7.0 w/v % hydroxypropyl-β-cyclodextrin): 17590 µg/mL (≈ 35.2 mM) | Solubility ([7]; aqueous formulation containing 10% Cremophor-EL alone): about 5 mg/ml | Solubility ([7]; aqueous formulation containing a mixture of 10% ethanol and 10% Tween 80): about 5 mg/ml | Residual amount of O-(4-dimethylaminoethoxycinnamoyl)fumagillol (%) after 1 month ([4]; storage at 25° C., after 1 month): 72.8% | Residual amount of O-(4-dimethylaminoethoxycinnamoyl)fumagillol (%) after 3 month ([4]; storage at 25° C., after 3 month): 54.3% | kobs (Hydrolysis Rate Constant) ([8]; Acidic (pH 3.2), 0 w/v % hydroxypropyl-β-cyclodextrin): 0.2042 h⁻¹ | Inhibition ratio (%) [8, 20]: 52.20% | kobs (Hydrolysis Rate Constant) [8, 20]: 0.0976 h⁻¹ | Inhibition ratio (%) [8, 21]: 58.47% | kobs (Hydrolysis Rate Constant) [8, 21]: 0.0848 h⁻¹ | Inhibition ratio (%) [8, 22]: 63.08% | kobs (Hydrolysis Rate Constant) [8, 22]: 0.0754 h⁻¹ | Inhibition ratio (%) [8, 23]: 67.43% | kobs (Hydrolysis Rate Constant) [8, 23]: 0.0665 h⁻¹ | kobs (Hydrolysis Rate Constant) ([8]; Basic (pH 11.5), 0 w/v % hydroxypropyl-β-cyclodextrin): 0.0918 h⁻¹ | Inhibition ratio (%) [8, 24]: 5.00% | kobs (Hydrolysis Rate Constant) [8, 24]: 0.0816 h⁻¹ | Inhibition ratio (%) [8, 25]: 16.55% | kobs (Hydrolysis Rate Constant) [8, 25]: 0.0580 h⁻¹ | Inhibition ratio (%) [8, 26]: 22.77% | kobs (Hydrolysis Rate Constant) [8, 26]: 0.0453 h⁻¹ | Inhibition ratio (%) [8, 27]: 30.56% | kobs (Hydrolysis Rate Constant) [8, 27]: 0.0294 h⁻¹ | kobs (Hydrolysis Rate Constant) ([8]; Neutral (pH 7.2), 0 w/v % hydroxypropyl-β-cyclodextrin): 0.0162 h⁻¹ | Inhibition ratio (%) [8, 28]: 12.96% | kobs (Hydrolysis Rate Constant) [8, 28]: 0.0141 h⁻¹ | Inhibition ratio (%) [8, 29]: 15.43% | kobs (Hydrolysis Rate Constant) [8, 29]: 0.0137 h⁻¹ | Inhibition ratio (%) [8, 30]: 24.96% | kobs (Hydrolysis Rate Constant) [8, 30]: 0.0122 h⁻¹ | Inhibition ratio (%) [8, 31]: 29.01% | kobs (Hydrolysis Rate Constant) [8, 31]: 0.0115 h⁻¹ | Inhibition Ratio (%), Tumor Tissue Volume [9, 32]: 37.7% | Inhibition Ratio (%), Tumor Tissue Weight [9, 32]: 33.6% | Inhibition Ratio (%), Tumor Tissue Volume [9, 33]: 63.3% | Inhibition Ratio (%), Tumor Tissue Weight [9, 33]: 71.4% | Solubility [5, 19]: 50 µg/mL (≈ 0.1 mM) | increase of aqueous solubility ([5]; depending the pH and the concentration of hydroxypropyl-β-cyclodextrin or sulfobutylether-7-β-cyclodextrin): 20-1000 fold | Solubility ([5]; in water): 50 µg/mL (≈ 0.1 mM)
